According to PubChem BioAssay (NCI):
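Results reflect a 48-hour exposure of cells in 96-well plates to compound at five concentrations. At the TGI there is no net growth.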

Assays:
Test in all cases: inhibition of tumour cell growth, NCI panel, 48 h
OVCAR-5 ovarian = system: OVCAR-5 ovarian
SF-539 CNS = system: SF-539 CNS
UACC-257 melanoma = system: UACC-257 melanoma
OVCAR-3 ovarian = system: OVCAR-3 ovarian
MALME-3M melanoma = system: MALME-3M melanoma
RXF 393 renal = system: RXF 393 renal
NCI-H460 lung = system: NCI-H460 lung
NCI-H226 lung = system: NCI-H226 lung
TK-10 renal = system: TK-10 renal
OVCAR-4 ovarian = system: OVCAR-4 ovarian
NCI-H522 lung = system: NCI-H522 lung
A549 NSCLC = system: A549 NSCLC
A498 renal = system: A498 renal
SR leukemia = system: SR leukemia
HCT-15 colon = system: HCT-15 colon
COLO 205 colon = system: COLO 205 colon
HOP-62 NSCLC = system: HOP-62 NSCLC
SN12C renal = system: SN12C renal

O=C(CCc1cccc(O)c1)NCCc1ccc(O)cc1
TGI (OVCAR-5 ovarian): > 100 µM | TGI (SF-539 CNS): > 100 µM | TGI (UACC-257 melanoma): > 100 µM | TGI (OVCAR-3 ovarian): > 100 µM | TGI (MALME-3M melanoma): > 100 µM | TGI (RXF 393 renal): > 100 µM | TGI (NCI-H460 lung): > 100 µM | TGI (NCI-H226 lung): > 100 µM | TGI (TK-10 renal): > 100 µM | TGI (OVCAR-4 ovarian): > 100 µM | TGI (NCI-H522 lung): > 100 µM | TGI (A549 NSCLC): > 100 µM | TGI (A498 renal): > 100 µM | TGI (SR leukemia): > 100 µM | TGI (HCT-15 colon): > 100 µM | TGI (COLO 205 colon): > 100 µM | TGI (HOP-62 NSCLC): > 100 µM | TGI (SN12C renal): > 100 µM

Cc1cc(C)c2c(=O)n(CN3CCC(O)(c4ccccc4)CC3)sc2n1
TGI (OVCAR-5 ovarian): 68.7 µM | TGI (SF-539 CNS): 58.3 µM | TGI (OVCAR-3 ovarian): > 100 µM | TGI (MALME-3M melanoma): 32.9 µM | TGI (RXF 393 renal): 37.7 µM | TGI (NCI-H460 lung): 95.3 µM | TGI (NCI-H226 lung): > 100 µM | TGI (TK-10 renal): 29.8 µM | TGI (OVCAR-4 ovarian): 81.4 µM | TGI (NCI-H522 lung): 24.2 µM | TGI (A549 NSCLC): > 100 µM | TGI (A498 renal): > 100 µM | TGI (SR leukemia): 82.8 µM | TGI (HCT-15 colon): > 100 µM | TGI (COLO 205 colon): > 100 µM | TGI (HOP-62 NSCLC): > 100 µM | TGI (SN12C renal): 86.2 µM

N/N=C1\CCCc2c1no[n+]2[O-]
TGI (OVCAR-5 ovarian): > 100 µM | TGI (SF-539 CNS): > 100 µM | TGI (UACC-257 melanoma): > 100 µM | TGI (OVCAR-3 ovarian): > 100 µM | TGI (MALME-3M melanoma): > 100 µM | TGI (RXF 393 renal): > 100 µM | TGI (NCI-H460 lung): > 100 µM | TGI (NCI-H226 lung): > 100 µM | TGI (TK-10 renal): > 100 µM | TGI (OVCAR-4 ovarian): > 100 µM | TGI (NCI-H522 lung): > 100 µM | TGI (A549 NSCLC): > 100 µM | TGI (A498 renal): > 100 µM | TGI (SR leukemia): > 100 µM | TGI (HCT-15 colon): > 100 µM | TGI (COLO 205 colon): > 100 µM | TGI (HOP-62 NSCLC): > 100 µM | TGI (SN12C renal): > 100 µM

O=[n+]1c2ccccc2n([O-])c2cc(Br)ccc21
TGI (OVCAR-5 ovarian): > 100 µM | TGI (SF-539 CNS): 37.5 µM | TGI (UACC-257 melanoma): 34.9 µM | TGI (OVCAR-3 ovarian): 9.04 µM | TGI (MALME-3M melanoma): 39.7 µM | TGI (RXF 393 renal): 41.1 µM | TGI (NCI-H460 lung): > 100 µM | TGI (NCI-H226 lung): 48.5 µM | TGI (TK-10 renal): 72.9 µM | TGI (OVCAR-4 ovarian): 45.2 µM | TGI (NCI-H522 lung): 30.2 µM | TGI (A549 NSCLC): 39.4 µM | TGI (A498 renal): 40.2 µM | TGI (SR leukemia): 5.21 µM | TGI (HCT-15 colon): 32 µM | TGI (COLO 205 colon): 57.2 µM | TGI (HOP-62 NSCLC): > 100 µM | TGI (SN12C renal): 42.3 µM

C=C1c2nc3ccccc3n2C=C(c2ccccc2)N1c1ccccc1
TGI (OVCAR-5 ovarian): > 100 µM | TGI (SF-539 CNS): > 100 µM | TGI (UACC-257 melanoma): > 100 µM | TGI (OVCAR-3 ovarian): > 100 µM | TGI (MALME-3M melanoma): > 100 µM | TGI (RXF 393 renal): > 100 µM | TGI (NCI-H460 lung): 79.6 µM | TGI (NCI-H226 lung): > 100 µM | TGI (TK-10 renal): > 100 µM | TGI (OVCAR-4 ovarian): > 100 µM | TGI (NCI-H522 lung): > 100 µM | TGI (A549 NSCLC): > 100 µM | TGI (A498 renal): > 100 µM | TGI (SR leukemia): > 100 µM | TGI (HCT-15 colon): 51.9 µM | TGI (COLO 205 colon): > 100 µM | TGI (SN12C renal): > 100 µM

CCOP(=O)(C=C=C(C)C)OCC
TGI (OVCAR-5 ovarian): > 100 µM | TGI (SF-539 CNS): > 100 µM | TGI (UACC-257 melanoma): > 100 µM | TGI (OVCAR-3 ovarian): > 100 µM | TGI (MALME-3M melanoma): > 100 µM | TGI (RXF 393 renal): > 100 µM | TGI (NCI-H460 lung): > 100 µM | TGI (NCI-H226 lung): > 100 µM | TGI (TK-10 renal): > 100 µM | TGI (OVCAR-4 ovarian): > 100 µM | TGI (NCI-H522 lung): > 100 µM | TGI (A549 NSCLC): > 100 µM | TGI (A498 renal): > 100 µM | TGI (SR leukemia): > 100 µM | TGI (HCT-15 colon): > 100 µM | TGI (COLO 205 colon): > 100 µM | TGI (HOP-62 NSCLC): > 100 µM | TGI (SN12C renal): > 100 µM

NCCCN1CCN(CC(=O)O)CCN(CCCN)CCN(CC(=O)O)CC1
TGI (OVCAR-5 ovarian): > 93.8 µM | TGI (SF-539 CNS): > 100 µM | TGI (UACC-257 melanoma): > 100 µM | TGI (OVCAR-3 ovarian): > 100 µM | TGI (MALME-3M melanoma): > 100 µM | TGI (RXF 393 renal): > 100 µM | TGI (NCI-H460 lung): > 100 µM | TGI (NCI-H226 lung): > 100 µM | TGI (TK-10 renal): > 100 µM | TGI (OVCAR-4 ovarian): > 100 µM | TGI (NCI-H522 lung): > 84.2 µM | TGI (A549 NSCLC): > 100 µM | TGI (A498 renal): > 100 µM | TGI (SR leukemia): > 100 µM | TGI (HCT-15 colon): > 100 µM | TGI (COLO 205 colon): > 100 µM | TGI (HOP-62 NSCLC): > 100 µM | TGI (SN12C renal): > 100 µM
